Values quoted from earlier work in patent US12161661B2, “Topical composition for destroying, in vivo, an external hyperplastic tissue, such as, but not limited to, a viral skin lesion, such as, but not limited to, a viral wart” (priority 2022, dated 2024).
Where two headings read alike, the source gives them in different places.

Experiments:
[1] = system: warts of the hands and legs; details: 5% cream once a day for 4 weeks, with occlusion
[2] = system: plantar warts; details: 12 weeks; 19/20
[3] = system: warts
[4] = system: flat warts on the face; details: 0.7% cantharidin, over 16 weeks on average
[5] = system: warts; remark: listed apart in the source
[6] = system: flat warts on the face; details: after 2 months, 0.5 mg/kg. per day
[7] = system: warts on the hands and feet; details: plus light source PDL
[8] = system: periungual warts; details: once in two weeks for 6 weeks, after fractional CO2 laser
[9] = system: warts; remark: listed apart in the source
[10] = system: warts; details: 80% solution every week for 6 weeks
[11] = system: warts; details: oral, within 3 months, children aged 2.5-12.5 years; 16/20
[12] = system: warts; details: 1 of 30
[13] = system: warts on the palms and soles
[14] = system: warts; remark: listed apart in the source
[15] = system: resistant warts
[16] = system: plantar warts; details: 10% solution
[17] = system: wart
[18] = 15-26% salicylic acid locally every day for 3 to 4 months

**Q.** Which results are given for `O=c1[nH]cc(F)c(=O)[nH]1` [5-FU, Ftoruracil]?
**A.** warts cleared at the end of treatment [1]: 60%; complete cure, patients [2]: 95%

**Q.** Which “curing, patients” value ([3]; 9.5 weeks, 50 patients of whom 19 had immunosuppression) does the source give for `CC(C)Cn1cnc2c(N)nc3ccccc3c21` [Imiquimod] here?
**A.** 56%

**Q.** And the “patients with a 50% egression of warts” value ([3]; twice daily for up to 24 weeks)?
**A.** 76%

**Q.** For `C[C@@]12C(=O)OC(=O)[C@]1(C)[C@H]1CC[C@@H]2O1` [cantharidin], which cure [4] is on record?
**A.** cure in all 15 patients

**Q.** For `Nc1ccn(C[C@@H](CO)OCP(=O)(O)O)c(=O)n1` [Cidofovir], which resolution of warts ([5]; average of 3.2 injections per course) is on record?
**A.** 98%

**Q.** What about the side effects ([5]; in vivo) of the same molecule?
**A.** nephrotoxicity, neutropenia, and metabolic acidosis

**Q.** With `CC1=C(/C=C/C(C)=C/C=C/C(C)=C\C(=O)O)C(C)(C)CCC1` [isotretinoin] as the molecule, how does the effect [6] read?
**A.** 73%

**Q.** Which “resolution of treated warts” value [7] does the source give for `COC(=O)CCC(=O)CN` [MAL-PDT, methyl5-aminolaevuninic acid] here?
**A.** 53%

**Q.** What about the cure rate [8] of the same molecule?
**A.** 90%

**Q.** Which average cure rate [9, 18] does the source give for `O=C(O)c1ccccc1O` [salicylic acid] here?
**A.** 49%

**Q.** What about the “cure rate, range” value [9, 18] of the same molecule?
**A.** 0-69%

**Q.** And the “effect of the salicylic acid (qualitative studies)” value ([9]; in vivo)?
**A.** low

**Q.** Which cure rate [10] does the source give for `Oc1ccccc1` [phenol] here?
**A.** 83%

**Q.** With `CCOC(=O)/C=C(C)/C=C/C=C(C)/C=C/c1c(C)cc(OC)c(C)c1C` [etretinate] as the molecule, how does the effect observed [11] read?
**A.** 80%

**Q.** For `CC1=C(/C=C/C(C)=C/C=C/C(C)=C/C(=O)O)C(C)(C)CCC1` [tretinoin], which “effect achieved, patients” value [12] is on record?
**A.** 3%

**Q.** What does the source list for `O=c1c(-c2ccccc2)c1-c1ccccc1` [DPC, Diphenylcyclopropenone]?
**A.** complete disappearance of warts ([13]; 48 patients treated with DPC): 88%; average processing time ([13]; human, in vivo): 5 months; recurrence ([13]; within 2 years): no recurrence was observed

**Q.** With `CC(=O)C(=O)O` [pyruvic acid] as the molecule, how does the “recovery, patients” value ([14]; in combination with 0.5% 5-FU) read?
**A.** 80%

**Q.** What about the “recovery, patients” value ([14]; pyruvic acid alone) of the same molecule?
**A.** 70%

**Q.** What does the source list for `O=CCCCC=O` [Glutaraldehyde]?
**A.** effectiveness ([15]; 25 patients): 72%; tolerability ([15]; human, in vivo): well tolerated; efficiency compared with salicylic acid [16]: equivalent to the solution of salicylic acid

**Q.** With bleomycin as the molecule, how does the cure rate ([17]; 0.1-1 mg injected into the wart, compared with cryotherapy) read?
**A.** 92-97%

**Q.** What about the “pain after injection, duration” value ([17]; main side effect) of the same molecule?
**A.** up to 48 hours
